Experimental data: patent US20100041089A1, “IMPROVED METHOD FOR DETECTING CHEMICAL […]” (priority 2006, published 2010)

Tested on: yeast genes (expressed mRNA)
Assay: DNA chip measurement of expressed mRNA of yeast genes after culture with a toxic chemical substance
Assay type: cell-based, Saccharomyces cerevisiae S288C
Method in brief: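 Two-hour exposure of growing S. cerevisiae S288C (YPD, 25° C) to a sublethal toxicant preceded RNA isolation. Fluorescent cDNA was hybridized to a whole-genome array; a treated-to-untreated signal ratio of two or more was taken as significant.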

SMILES: N#Cc1c(Cl)c(Cl)c(Cl)c(C#N)c1Cl [(9), 2,4,5,6-Tetrachloro-1,3-benzenedicarbonitrile]
- The level of expressed mRNA in the presence of chemical substance/The level of expressed mRNA in the absence of chemical substance (yeast gene YFL010C, cultured two hours with substance): 3.1
- The level of expressed mRNA in the presence of chemical substance/The level of expressed mRNA in the absence of chemical substance (yeast gene YFL014W, DNA repair protein genes, cultured two hours with substance): 13.1
- The level of expressed mRNA in the presence of chemical substance/The level of expressed mRNA in the absence of chemical substance (yeast gene YFL024C, cultured two hours with substance): 0.5
- The level of expressed mRNA in the presence of chemical substance/The level of expressed mRNA in the absence of chemical substance (yeast gene YFL030W, metabolism protein genes): 24.5
- The level of expressed mRNA in the presence of chemical substance/The level of expressed mRNA in the absence of chemical substance (yeast gene YFL032W, cultured two hours with substance): 0.5
- The level of expressed mRNA in the presence of chemical substance/The level of expressed mRNA in the absence of chemical substance (yeast gene YFL056C): 162.3
- The level of expressed mRNA in the presence of chemical substance/The level of expressed mRNA in the absence of chemical substance (yeast gene YFL056C, cultured for two hours with substance): 162.3
- The level of expressed mRNA in the presence of chemical substance/The level of expressed mRNA in the absence of chemical substance (yeast gene YFL057C): 51.8
- The level of expressed mRNA in the presence of chemical substance/The level of expressed mRNA in the absence of chemical substance (yeast gene YFL057C, cultured for two hours with substance): 51.8
- The level of expressed mRNA in the presence of chemical substance/The level of expressed mRNA in the absence of chemical substance (yeast gene YFR020W, cultured two hours with substance): 3.7
- The level of expressed mRNA in the presence of chemical substance/The level of expressed mRNA in the absence of chemical substance (yeast gene YFR030W): 24.1
- The level of expressed mRNA in the presence of chemical substance/The level of expressed mRNA in the absence of chemical substance (yeast gene YFR042W, cultured two hours with substance): 2.8
- The level of expressed mRNA in the presence of chemical substance/The level of expressed mRNA in the absence of chemical substance (yeast gene YGL037C, cultured two hours with substance): 2.1
- The level of expressed mRNA in the presence of chemical substance/The level of expressed mRNA in the absence of chemical substance (yeast gene YGL047W, cultured two hours with substance): 4.5
- The level of expressed mRNA in the presence of chemical substance/The level of expressed mRNA in the absence of chemical substance (yeast gene YGL053W, cultured two hours with substance): 3.3
- The level of expressed mRNA in the presence of chemical substance/The level of expressed mRNA in the absence of chemical substance (yeast gene YGL091C, DNA repair protein genes, cultured two hours with substance): 10.8
- The level of expressed mRNA in the presence of chemical substance/The level of expressed mRNA in the absence of chemical substance (yeast gene YGL098W, cultured two hours with substance): 1.2
- The level of expressed mRNA in the presence of chemical substance/The level of expressed mRNA in the absence of chemical substance (yeast gene YGL104C): 4.6
- The level of expressed mRNA in the presence of chemical substance/The level of expressed mRNA in the absence of chemical substance (yeast gene YGL121C, cultured two hours with substance): 7.0
- The level of expressed mRNA in the presence of chemical substance/The level of expressed mRNA in the absence of chemical substance (yeast gene YGL136C, cultured two hours with substance): 1.3
- The level of expressed mRNA in the presence of chemical substance/The level of expressed mRNA in the absence of chemical substance (yeast gene YGL227W, cultured two hours with substance): 2.4
- The level of expressed mRNA in the presence of chemical substance/The level of expressed mRNA in the absence of chemical substance (yeast gene YGR010W, cultured two hours with substance): 13.6
- The level of expressed mRNA in the presence of chemical substance/The level of expressed mRNA in the absence of chemical substance (yeast gene YGR043C): 10.9
- The level of expressed mRNA in the presence of chemical substance/The level of expressed mRNA in the absence of chemical substance (yeast gene YGR043C, cultured for two hours with substance): 10.9
- The level of expressed mRNA in the presence of chemical substance/The level of expressed mRNA in the absence of chemical substance (yeast gene YGR101W, cultured two hours with substance): 4.0
- The level of expressed mRNA in the presence of chemical substance/The level of expressed mRNA in the absence of chemical substance (yeast gene YGR110W, cultured two hours with substance): 6.4
- The level of expressed mRNA in the presence of chemical substance/The level of expressed mRNA in the absence of chemical substance (yeast gene YGR130C, cultured two hours with substance): 2.0
- The level of expressed mRNA in the presence of chemical substance/The level of expressed mRNA in the absence of chemical substance (yeast gene YGR134W, cultured two hours with substance): 2.4
- The level of expressed mRNA in the presence of chemical substance/The level of expressed mRNA in the absence of chemical substance (yeast gene YGR142W, cultured two hours with substance): 36.8
- The level of expressed mRNA in the presence of chemical substance/The level of expressed mRNA in the absence of chemical substance (yeast gene YGR146C, cultured two hours with substance): 0.8
- The level of expressed mRNA in the presence of chemical substance/The level of expressed mRNA in the absence of chemical substance (yeast gene YGR154C, cultured two hours with substance): 25.2
- The level of expressed mRNA in the presence of chemical substance/The level of expressed mRNA in the absence of chemical substance (yeast gene YGR197C (transport facilitation protein gene)): 16.7
- The level of expressed mRNA in the presence of chemical substance/The level of expressed mRNA in the absence of chemical substance (yeast gene YGR284C, cultured two hours with substance): 4.3
- The level of expressed mRNA in the presence of chemical substance/The level of expressed mRNA in the absence of chemical substance (yeast gene YHR016C, cultured two hours with substance): 2.8
- The level of expressed mRNA in the presence of chemical substance/The level of expressed mRNA in the absence of chemical substance (yeast gene YHR029C, cultured two hours with substance): 13.6
- The level of expressed mRNA in the presence of chemical substance/The level of expressed mRNA in the absence of chemical substance (yeast gene YHR138C, cultured two hours with substance): 5.3
- The level of expressed mRNA in the presence of chemical substance/The level of expressed mRNA in the absence of chemical substance (yeast gene YHR199C, cultured two hours with substance): 8.6
- The level of expressed mRNA in the presence of chemical substance/The level of expressed mRNA in the absence of chemical substance (yeast gene YHR209W, cultured two hours with substance): 2.9
- The level of expressed mRNA in the presence of chemical substance/The level of expressed mRNA in the absence of chemical substance (yeast gene YIL023C, cultured two hours with substance): 3.5
- The level of expressed mRNA in the presence of chemical substance/The level of expressed mRNA in the absence of chemical substance (yeast gene YIL024C, cultured two hours with substance): 2.2
- The level of expressed mRNA in the presence of chemical substance/The level of expressed mRNA in the absence of chemical substance (yeast gene YIL041W, cultured two hours with substance): 1.8
- The level of expressed mRNA in the presence of chemical substance/The level of expressed mRNA in the absence of chemical substance (yeast gene YIL087C, cultured two hours with substance): 2.4
- The level of expressed mRNA in the presence of chemical substance/The level of expressed mRNA in the absence of chemical substance (yeast gene YIL097W, cultured two hours with substance): 4.9
- The level of expressed mRNA in the presence of chemical substance/The level of expressed mRNA in the absence of chemical substance (yeast gene YIL117C, cultured two hours with substance): 2.3
- The level of expressed mRNA in the presence of chemical substance/The level of expressed mRNA in the absence of chemical substance (yeast gene YIL143C, DNA repair protein genes, cultured two hours with substance): 7.1
- The level of expressed mRNA in the presence of chemical substance/The level of expressed mRNA in the absence of chemical substance (yeast gene YIL153W, DNA repair protein genes, cultured two hours with substance): 4.3
- The level of expressed mRNA in the presence of chemical substance/The level of expressed mRNA in the absence of chemical substance (yeast gene YJL020C, cultured two hours with substance): 1.3
- The level of expressed mRNA in the presence of chemical substance/The level of expressed mRNA in the absence of chemical substance (yeast gene YJL057C, cultured two hours with substance): 7.3
- The level of expressed mRNA in the presence of chemical substance/The level of expressed mRNA in the absence of chemical substance (yeast gene YJL066C, cultured two hours with substance): 2.0
- The level of expressed mRNA in the presence of chemical substance/The level of expressed mRNA in the absence of chemical substance (yeast gene YJL082W, cultured two hours with substance): 1.4
